In paper PMC10794626, “Investigations of potential non-amino acid SNAT2 inhibitors” (Frontiers in Pharmacology, 2024):
Values after ≈ are worked out from the molar mass of the structure shown. Where a name gives a salt, the structure may show the parent alone. Read-outs that look alike come from different tables or passages of the source.

Columns and labels:
[1] = Equilibrium solubility in HBSS* buffer (HPLC-UV); type: physicochemical; settings: HEPES buffered HBSS (HBSS*) buffer, pH 7.4, 37°C, mean ± SD, N = 3
Procedure: The mobile phases (MP) consisted of ultra-pure water containing 0.1% trifluoroacetic acid (MP A) and acetonitrile containing 0.1% trifluoroacetic acid (MP B). A reversed-phase column (Nova-Pak® C18, 4 μm, 3.9 × 150 mm, Waters, Milford, MA, United States) was applied and maintained at 22°C. The flow was constant at 0.6 mL ⋅ min^−1 with an isocratic elution of 40% MP A and 60% MP B for 53B, 55B, and 57B, an isocratic elution of 30% MP A and 70% MP B with a constant flow of 0.8 mL ⋅ min^−1 for MMTC, and an isocratic elution of 60% MP A and 40% MP B with a constant flow of 0.6 mL ⋅ min^−1 for […]. Samples of 20 μL, maintained at 25°C, were injected and all five compounds were measured at 270 nm. […] The calibration curves ranged from 5 to 30 µM for MMTC and 53B and from 7.5 to 30 µM for 54F, 55B, and 57B. Linear regression of peak height as a function of concentration was analyzed using GraphPad Prism 9.4.1.
The 5 mL vials were then left on a rotator covered in aluminum foil at 37°C. After 72 h rotation, the solutions were equally distributed into three 1.5 mL microtubes, to do triplicate measurements, and centrifuged at 10,000 g at room temperature for 10 min. The supernatant was removed and for 53B, 54F, and 57B the supernatant was diluted 1:2 with their respective mobile phases. For MMTC and 55B, the supernatant was diluted 2:1 with their respective mobile phase. The diluted samples were analyzed by HPLC-UV as described in Section 2.4.
For the quantification of MMTC, 53B, 54F, 55B, and 57B a linear regression was made of each of the calibration curves, where the known concentrations were plotted as a function of the peak height.

SNAT2 = biological target: T1, SNAT2 (Homo sapiens, UniProt Q96QD8); experiment: 3H-Gly uptake in hyperosmotically treated PC-3 cells; type: cell-based; settings: for Inhibition of 3H-Gly uptake (overall finding, in words): concentration not given, 54F at the highest soluble concentration
T1 construct: endogenous in cells; host or cells: PC-3 cells (ECACC 90,112,714), 24 h in hyperosmotic medium
T1 sequence (Q96QD8 1-506): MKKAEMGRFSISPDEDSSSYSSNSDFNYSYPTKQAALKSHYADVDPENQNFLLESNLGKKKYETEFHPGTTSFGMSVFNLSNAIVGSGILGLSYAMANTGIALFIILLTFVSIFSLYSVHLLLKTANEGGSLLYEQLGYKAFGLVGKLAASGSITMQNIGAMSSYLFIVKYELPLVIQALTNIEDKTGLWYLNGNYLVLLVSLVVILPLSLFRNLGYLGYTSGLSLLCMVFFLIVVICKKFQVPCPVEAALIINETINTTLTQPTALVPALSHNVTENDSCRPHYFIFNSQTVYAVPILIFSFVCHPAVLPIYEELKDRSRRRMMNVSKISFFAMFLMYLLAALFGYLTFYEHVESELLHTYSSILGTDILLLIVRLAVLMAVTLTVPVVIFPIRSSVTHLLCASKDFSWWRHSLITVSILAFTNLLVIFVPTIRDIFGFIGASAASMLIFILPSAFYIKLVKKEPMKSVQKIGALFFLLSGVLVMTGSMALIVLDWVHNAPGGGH
Procedure: PC-3 cells (ECACC 90,112,714) were obtained from the European Collection of Authenticated Cell Cultures (ECACC; UK Health Security Agency, Salisbury, United Kingdom) and were received in passage 31. […] The cells were kept incubated at 37°C in an atmosphere of 5% CO2 and 94%–97% relative humidity and the culture medium was changed every 2–3 days. For hyperosmotic stimulation, PC-3 cells were incubated in hyperosmotic media for 24 h before the uptake experiment. The hyperosmotic media was made by supplementing normal isoosmotic culture medium with 200 mM raffinose to reach an osmolality of approximately 500 mOsm ⋅ kg^−1. For uptake studies, the PC-3 cells were seeded in 24-well plates (area of 1.9 cm^2) at a density of 1.5 ⋅ 10^5 cells ⋅ cm^−2 2 days before the experiment. Experiments were performed using PC-3 cells in passages 2–15 after thawing.
Hyperosmotically treated PC-3 cells were used to study the uptake of radiolabeled ^3H-Gly. Solutions were prepared using Hanks Balanced Salt Solution (HBSS), which consisted of the following (mM): CaCl2, 1.26; MgCl2, 0.49; MgSO4, 0.41; KCl, 5.33; KH2PO4, 0.44; NaCl, 138; Na2HPO4, 0.34; D-glucose, 5.56; NaHCO3, 4.17. HBSS was supplemented with 10 mM HEPES and adjusted to pH 7.4 ± 0.01 (HBSS*) with […]. Donor solutions contained 0.5 μCi/mL of ^3H-glycine (11.1 nM). MMTC was also investigated at a substrate concentration of 100 µM Gly, which was achieved by the addition of unlabeled Gly to donor solutions containing 0.5 μCi/mL of ^3H-Gly (11.1 nM). […] Before starting the uptake experiment the media was aspirated, and the cells were preincubated in HBSS* for 15 min at 37°C and 220 rpm. To initiate the uptake study, the buffer was removed and 300 µL of prewarmed (37°C) donor solution was added to the cells and incubated at 37°C. During incubation, the cells were circularly rotated at 220 rpm using a Talboys incubating microplate shaker (Troemner, Thorofare, NJ, United States). After 5 min, the uptake experiment was terminated by removing the buffer solutions by vacuum suction, and the cells were washed thrice with 500 µL ice-cold HBSS. […] The cells were then detached by applying 200 µL of 0.1% Triton-X 100 for at least 25 min and cells were then transferred to scintillation vials along with 2 mL of Ultima Gold scintillation fluid. The vials were vortexed before being analyzed by a liquid scintillation counter, which was a TriCarb 4910 TR from PerkinElmer (Waltham, MA, United States).
^3H-Gly uptake values were normalized to the control uptake of each experiment, but without subtracting any background uptake.
Statistical differences were tested in GraphPad Prism 9.4.1 using one-way ANOVA followed by Dunnett’s multiple comparison test. The significance level used was p < 0.05 (*). Data are represented as means ± SEM from independent cell passages (n) unless otherwise stated.

[2] = Kinetic solubility of MMTC diluted from DMSO stock into HBSS*; type: physicochemical; settings: HBSS* buffer, 37°C
Procedure: Quantification of compounds was performed using a Waters 2695 HPLC system (Waters Corporation, MA, United States) connected to a Waters 2487 Dual λ Absorbance Detector (Waters Corporation, MA, United States). The mobile phases (MP) consisted of ultra-pure water containing 0.1% trifluoroacetic acid (MP A) and acetonitrile containing 0.1% trifluoroacetic acid (MP B). A reversed-phase column (Nova-Pak® C18, 4 μm, 3.9 × 150 mm, Waters, Milford, MA, United States) was applied and maintained at 22°C. The flow was constant at 0.6 mL ⋅ min^−1 with an isocratic elution of 40% MP A and 60% MP B for 53B, 55B, and 57B, an isocratic elution of 30% MP A and 70% MP B with a constant flow of 0.8 mL ⋅ min^−1 for MMTC, and an isocratic elution of 60% MP A and 40% MP B with a constant flow of 0.6 mL ⋅ min^−1 for […]. Samples of 20 μL, maintained at 25°C, were injected and all five compounds were measured at 270 nm. MMTC, 53B, 54F, 55B, and 57B had retention times of 4.00, 2.47, 5.14, 2.92, and 4.00 min, respectively. […] Linear regression of peak height as a function of concentration was analyzed using GraphPad Prism 9.4.1. […]
The 5 mL vials were then left on a rotator covered in aluminum foil at 37°C. […] The diluted samples were analyzed by HPLC-UV as described in Section 2.4. […]

ASCT2 = test system: ASCT2; set-up: method as in Schulte et al., 2016; Schulte et al., 2018; settings: HEK293 cells, ref Schulte et al., 2016, 2018; cited from earlier work
PC-3 cells = test system: PC-3 cells; set-up: method as in Nielsen et al., 2022; settings: ref Nielsen et al., 2022, read-out: Km of uptake; cited from earlier work
[3] = at soluble conditions / within soluble concentration range

SMILES: COC(=O)c1ccccc1NC(=O)Nc1c(-c2ccncc2)[nH]c2ccc(Cl)cc12 [55B]
- solubility thermodynamic ([1]; aqueous buffer): 13.2 ± 1.6 µM (≈ 5.56 µg/mL)
- solubility thermodynamic [1]: 13.3 µM (≈ 5.6 µg/mL)
- Inhibition of 3H-Gly uptake (SNAT2; [3]): no inhibition

SMILES: Cc1ccccc1Nc1c(-c2ccc(N3CCOCC3)cc2)nc2cnccn12 [53B]
- solubility thermodynamic ([1]; aqueous buffer): 24.9 ± 0.8 µM (≈ 9.6 µg/mL)
- Inhibition of 3H-Gly uptake (SNAT2; [3]): no inhibition

SMILES: N=C(N)NCCC[C@H](N)C(=O)O [L-Arg, L-arginine hydrochloride]
- Effect on 3H-Gly uptake (SNAT2; 20 mM, 11.1 nM 3H-Gly, 5 min): did not affect the uptake significantly

SMILES: Cc1ccc(S(=O)(=O)N(C)c2ccsc2C(=O)NCc2ccccc2C(F)(F)F)cc1 [MMTC, 3-(N-methyl (4-methylphenyl)sulfonamido)-N-(2-trifluoromethylbenzyl)thiophene-2-carboxamide]
- solubility thermodynamic ([1]; aqueous buffer): < 1.8 µM
- Inhibition of Gly uptake (SNAT2; 1 µM MMTC, substrate concentration 100 µM Gly, Supplementary Figure S1, n = 1): does not inhibit
- Inhibition of SNAT2-mediated 3H-Gly uptake (SNAT2; 1 µM compound, 11.1 nM 3H-Gly, 5 min, 37°C, 1% DMSO): no inhibition
- Inhibition of SNAT2-mediated 3H-Gly uptake (SNAT2; 5 µM compound, 11.1 nM 3H-Gly, 5 min, 37°C, 1% DMSO): no inhibition
- Inhibition of 3H-Gly uptake (overall finding, in words) (SNAT2): did not inhibit
- solubility kinetic ([2]; aqueous buffer, kinetic from dmso stock, within 15 min, remained stable for at least 45 min, read-out: MMTC concentration after dilution of DMSO stock to 10 µM in HBSS*): ~2.5 µM (≈ 1.17 µg/mL)
- solubility kinetic ([2]; pH 7.4, HBSS*, during the course of the uptake study, read-out: Kinetic solubility): 2.5 to 10 µM (≈ 1.17 to 4.69 µg/mL)

SMILES: C[N+](C)(C)CC(=O)O [betaine]
- Inhibition of Gly uptake (in words) (SNAT2; 50 mM betaine, 20 mM Gln, Figure 1): almost completely inhibits
- Inhibition of 3H-Gly uptake (SNAT2; 50 mM, 11.1 nM 3H-Gly, 5 min): around 86%

SMILES: CC(C)c1ccc(S(=O)(=O)Nc2ccc3nc(S(C)(=O)=O)sc3c2)cc1 [54F]
- solubility thermodynamic ([1]; aqueous buffer): 56.1 ± 0.5 µM (≈ 23 µg/mL)
- Inhibition of 3H-Gly uptake compared to control (SNAT2; 50 µM compound, 11.1 nM 3H-Gly, 5 min, 37°C, 1% DMSO): approximately 20%
- Inhibition of 3H-Gly uptake (overall finding, in words) (SNAT2): significant, but small, inhibition

SMILES: Cc1nc(-n2nc(C)c(Cc3ccc(Cl)cc3)c2C)sc1C(=O)N1CCN(C)CC1 [57B]
- solubility thermodynamic ([1]; aqueous buffer): 27.5 ± 1 µM (≈ 12.2 µg/mL)
- Inhibition of 3H-Gly uptake (SNAT2; [3]): no inhibition

SMILES: Cc1cccc(COc2ccccc2CN(CC[C@H](N)C(=O)O)Cc2ccccc2OCc2cccc(C)c2)c1 [V-9302]
- IC50 (ASCT2): 7 to 10 µM

SMILES: O=C(O)[C@@H]1CCCN1 [Pro]
- Km (PC-3 cells): 780 ± 100 µM

SMILES: NCC(=O)O [Gly, glycine]
- Km (PC-3 cells): 750 ± 160 µM
